Assay results reported in US10189845B2, “4,6-substituted-pyrazolo[1,5-a]pyrazines as janus kinase inhibitors” (ARRAY BIOPHARMA INC., priority 2014, dated 2019).
Like-named read-outs stand apart in the source and are kept apart here.

How the values were obtained:
Assay type in all cases: biochemical
Human Tyk2 kinase domain = Human Tyk2 kinase domain (Homo sapiens (Human), UniProt P29597); assay: Tyk2 Inhibition Assay (Example A, Omnia kinase fluorescence peptide substrate assay); details: TYK2 Enzyme IC50 1 mM ATP, averaged IC50 ranges
Sequence of Human Tyk2 kinase domain (P29597 886-1187): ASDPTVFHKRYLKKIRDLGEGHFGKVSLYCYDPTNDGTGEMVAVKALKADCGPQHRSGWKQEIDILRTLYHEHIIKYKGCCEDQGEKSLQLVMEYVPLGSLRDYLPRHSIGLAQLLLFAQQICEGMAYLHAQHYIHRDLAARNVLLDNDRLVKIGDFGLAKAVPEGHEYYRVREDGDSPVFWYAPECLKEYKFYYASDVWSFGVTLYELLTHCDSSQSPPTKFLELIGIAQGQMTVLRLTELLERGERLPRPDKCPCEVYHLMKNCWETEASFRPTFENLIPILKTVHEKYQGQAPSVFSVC
From the text: (§1) The assays described in Examples A, B, C and D for the determination of Tyk2, JAK1, JAK2 and JAK3 kinase activity, respectively, utilized the Omnia® Kinase fluorescence peptide substrate-based technology (Invitrogen). The specific components of the assay mixture are described in Examples A, B, C and D. In these assays, Mg^2+ is chelated upon phosphorylation of the Omnia peptide by the kinase to form a bridge between the chelation-enhanced fluorophore Sox and the phosphate, resulting in an increase in fluorescence emission at 485 nm when excited at […]. The reactions were therefore read at excitation 360 nm and emission was measured at 485 nm every 50 seconds for 45 minutes using a PerkinElmer EnVision Multilabel Plate Reader.
(§2) The final buffer conditions for Tyk2, JAK1, JAK2, and JAK3 assays were as follows: 25 mM HEPES, pH 7.4, 10 mM MgCl2, 0.01% Triton X-100 and 1 mM DTT.
(§3) Two-μL aliquots of these were transferred to a fresh plate for a ten-fold intermediate dilution with assay buffer. Five-μL aliquots of the diluted compounds were then transferred to 20-μL of assay mixtures described in Examples A, B, C and D for a final concentration of DMSO of 2%. […] For each plate, percent of control (POC) values were calculated for each well according to the following equation: […]
(§4) IC50's were estimated from the POC's using a standard 4-parameter logistic model:
(§5) The IC50 is defined as the concentration of inhibitor at which the POC equals 50 for the fitted curve.
Compounds of Formula I were screened for their ability to inhibit Tyk2 using the general enzyme inhibition assay method, in which the assay mixture contained 1 mM ATP, 8 μM Omnia Y12 peptide (Catalog # IVGN KPZ3121C; Invitrogen Corporation, Carlsbad, Calif.) and 1 nM Tyk2 in a total volume of 25 μL. Human Tyk2 kinase domain, comprising amino acids 886 to 1187 with 10 additional histidine residues (histidine tag) on the carboxy terminus, was expressed and purified from bacculovirus in-house at Array BioPharma Inc. (Boulder, Colo.). The histidine tag was cleaved after purification using standard conditions.

JAK1 = JAK1 (Homo sapiens (Human), UniProt P23458); assay: JAK1 Inhibition Assay (Example B, Omnia kinase fluorescence peptide substrate assay)
Sequence of JAK1 (P23458 whole entry): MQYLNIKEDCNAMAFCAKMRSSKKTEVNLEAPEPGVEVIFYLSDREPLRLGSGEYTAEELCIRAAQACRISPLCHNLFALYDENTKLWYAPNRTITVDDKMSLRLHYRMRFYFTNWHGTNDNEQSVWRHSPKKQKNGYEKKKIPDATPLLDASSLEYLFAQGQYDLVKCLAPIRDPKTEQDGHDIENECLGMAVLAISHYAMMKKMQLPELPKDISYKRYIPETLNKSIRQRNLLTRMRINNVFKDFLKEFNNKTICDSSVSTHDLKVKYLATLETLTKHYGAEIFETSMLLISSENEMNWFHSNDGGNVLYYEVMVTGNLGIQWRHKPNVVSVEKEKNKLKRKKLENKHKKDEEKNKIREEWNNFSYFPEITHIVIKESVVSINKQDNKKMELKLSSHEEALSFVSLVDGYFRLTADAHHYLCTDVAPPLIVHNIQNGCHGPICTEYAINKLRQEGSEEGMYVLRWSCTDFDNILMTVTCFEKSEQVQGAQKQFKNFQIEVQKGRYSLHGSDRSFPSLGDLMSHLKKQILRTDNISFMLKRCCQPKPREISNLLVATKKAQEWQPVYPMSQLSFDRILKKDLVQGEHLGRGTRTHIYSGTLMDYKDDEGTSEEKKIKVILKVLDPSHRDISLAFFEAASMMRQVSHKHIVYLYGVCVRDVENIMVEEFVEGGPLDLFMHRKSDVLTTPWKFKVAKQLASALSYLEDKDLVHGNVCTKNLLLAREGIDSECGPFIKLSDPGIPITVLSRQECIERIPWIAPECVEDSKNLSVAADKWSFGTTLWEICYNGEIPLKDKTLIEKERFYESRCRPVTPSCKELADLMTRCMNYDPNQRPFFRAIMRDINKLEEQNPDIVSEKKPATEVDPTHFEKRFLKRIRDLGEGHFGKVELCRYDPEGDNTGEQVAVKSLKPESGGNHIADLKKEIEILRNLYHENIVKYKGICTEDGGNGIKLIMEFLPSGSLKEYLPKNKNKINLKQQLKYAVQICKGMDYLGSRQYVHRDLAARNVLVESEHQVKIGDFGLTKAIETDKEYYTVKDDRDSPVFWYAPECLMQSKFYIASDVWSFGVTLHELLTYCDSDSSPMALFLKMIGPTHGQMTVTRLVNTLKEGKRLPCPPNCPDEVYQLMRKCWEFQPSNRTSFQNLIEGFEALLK
From the text: as §1, §2, §3, §4, §5
(§6) Compounds of Formula I were screened for their ability to inhibit JAK1 using the general enzyme inhibition assay method, in which the assay mixture contained 1 mM ATP, 8 μM Omnia® Y12 peptide (Catalog # IVGN KPZ3121C; Invitrogen Corporation, Carlsbad, Calif.) and 12.5 nM JAK1 in a total volume of 25 μL. JAK1 was purchased from Invitrogen Corporation, Carlsbad, Calif. (catalog # IVGN PV4775).

JAK3 = JAK3 (Homo sapiens (Human), UniProt P52333); assay: JAK3 Inhibition Assay (Example D, Omnia kinase fluorescence peptide substrate assay)
Sequence of JAK3 (P52333 whole entry): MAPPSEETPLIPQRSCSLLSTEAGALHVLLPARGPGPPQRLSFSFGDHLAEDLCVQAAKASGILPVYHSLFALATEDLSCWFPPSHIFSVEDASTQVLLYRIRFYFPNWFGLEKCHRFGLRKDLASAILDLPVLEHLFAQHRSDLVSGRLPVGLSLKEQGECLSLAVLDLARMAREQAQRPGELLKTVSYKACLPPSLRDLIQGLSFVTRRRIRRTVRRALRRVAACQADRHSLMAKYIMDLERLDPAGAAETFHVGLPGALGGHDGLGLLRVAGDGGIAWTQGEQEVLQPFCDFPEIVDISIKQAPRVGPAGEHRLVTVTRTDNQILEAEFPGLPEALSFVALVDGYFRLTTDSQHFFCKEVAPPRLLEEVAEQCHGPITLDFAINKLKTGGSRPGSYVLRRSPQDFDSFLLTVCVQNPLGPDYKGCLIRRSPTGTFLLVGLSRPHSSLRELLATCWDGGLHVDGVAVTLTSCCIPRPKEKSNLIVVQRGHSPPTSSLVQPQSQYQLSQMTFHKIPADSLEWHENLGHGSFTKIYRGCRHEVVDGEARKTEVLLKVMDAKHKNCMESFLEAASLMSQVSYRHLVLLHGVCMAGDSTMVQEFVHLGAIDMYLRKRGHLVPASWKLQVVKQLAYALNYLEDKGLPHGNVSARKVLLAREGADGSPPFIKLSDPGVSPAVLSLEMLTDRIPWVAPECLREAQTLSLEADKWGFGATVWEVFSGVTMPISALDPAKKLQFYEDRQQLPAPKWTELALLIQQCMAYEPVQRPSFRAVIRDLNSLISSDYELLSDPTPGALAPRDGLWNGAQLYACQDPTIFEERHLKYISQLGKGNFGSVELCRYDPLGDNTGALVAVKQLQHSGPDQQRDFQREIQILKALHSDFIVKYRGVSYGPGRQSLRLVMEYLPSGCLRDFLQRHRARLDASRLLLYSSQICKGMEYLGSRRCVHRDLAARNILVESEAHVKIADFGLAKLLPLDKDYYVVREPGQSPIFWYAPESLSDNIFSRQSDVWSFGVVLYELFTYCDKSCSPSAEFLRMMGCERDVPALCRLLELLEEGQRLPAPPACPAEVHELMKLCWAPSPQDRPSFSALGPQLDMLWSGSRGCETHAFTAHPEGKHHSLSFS
From the text: as §1, §2, §3, §4, §5
as §6, with “JAK3” for “JAK1”, “10” for “8”, “Y7” for “Y12”, “KNZ3071C,” for “KPZ3121C;”, “2” for “12.5”, “PV4080).” for “PV4775).”

JAK2 = JAK2 (Homo sapiens (Human), UniProt O60674); assay: JAK2 Inhibition Assay (Example C, Omnia kinase fluorescence peptide substrate assay); details: JAK2 Enzyme IC50 1 mM ATP, averaged IC50 ranges
Sequence of JAK2 (O60674 whole entry): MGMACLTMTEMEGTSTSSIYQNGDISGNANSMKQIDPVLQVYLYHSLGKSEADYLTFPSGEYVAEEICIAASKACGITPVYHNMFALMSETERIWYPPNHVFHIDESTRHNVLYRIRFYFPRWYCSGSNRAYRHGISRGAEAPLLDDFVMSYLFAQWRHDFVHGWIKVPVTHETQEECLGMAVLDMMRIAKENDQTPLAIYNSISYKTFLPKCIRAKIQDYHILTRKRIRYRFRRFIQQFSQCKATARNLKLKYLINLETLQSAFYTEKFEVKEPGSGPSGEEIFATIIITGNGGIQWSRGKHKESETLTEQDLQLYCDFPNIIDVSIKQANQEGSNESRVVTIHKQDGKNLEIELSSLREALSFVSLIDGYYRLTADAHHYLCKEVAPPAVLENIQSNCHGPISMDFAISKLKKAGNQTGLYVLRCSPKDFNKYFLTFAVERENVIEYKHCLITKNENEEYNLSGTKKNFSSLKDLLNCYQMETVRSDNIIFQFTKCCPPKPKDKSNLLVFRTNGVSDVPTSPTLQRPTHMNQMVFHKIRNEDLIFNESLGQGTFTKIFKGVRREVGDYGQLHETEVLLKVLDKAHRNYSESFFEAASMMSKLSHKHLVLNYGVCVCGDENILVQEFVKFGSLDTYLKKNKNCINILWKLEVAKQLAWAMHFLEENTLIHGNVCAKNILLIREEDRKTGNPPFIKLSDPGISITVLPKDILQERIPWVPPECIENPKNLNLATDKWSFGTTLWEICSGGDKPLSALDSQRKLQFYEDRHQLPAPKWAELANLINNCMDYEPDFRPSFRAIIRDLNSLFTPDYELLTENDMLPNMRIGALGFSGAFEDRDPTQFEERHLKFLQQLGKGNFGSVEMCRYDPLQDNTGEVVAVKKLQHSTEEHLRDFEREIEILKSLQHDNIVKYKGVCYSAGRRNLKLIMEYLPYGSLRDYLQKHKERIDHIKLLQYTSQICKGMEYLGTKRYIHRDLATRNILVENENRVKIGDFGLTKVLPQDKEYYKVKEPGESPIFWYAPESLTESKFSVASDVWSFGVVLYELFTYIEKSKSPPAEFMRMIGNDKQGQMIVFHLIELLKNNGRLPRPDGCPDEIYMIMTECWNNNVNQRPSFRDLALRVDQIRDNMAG
From the text: as §1, §2, §3, §4, §5
as §6, with “JAK2” for “JAK1”, “10” for “8”, “Y7” for “Y12”, “KNZ3071C,” for “KPZ3121C;”, “4” for “12.5”, “PV4288).” for “PV4775).”

[1] = JAK1 Enzyme IC50 1 mM ATP, 1 mM ATP, averaged IC50 ranges

| SMILES | IC50 (Human Tyk2 kinase domain) | IC50 (JAK1) | IC50 (JAK3) | IC50 (JAK2) | IC50 (JAK1; [1]) |
| --- | --- | --- | --- | --- | --- |
| CCC(CC)n1cc(-c2nc(-c3cnn([C@H](C)[C@H](O)CO)c3)cn3nccc23)cn1 (single isomer, unassigned) [Example 90] | 10 to 100 nM | 100 to 1000 nM | 1 to 10 µM | 10 to 100 nM | – |
| CCC(CC)n1cc(-c2nc(-c3cnn(C[C@@H](O)CN4CC(OC)C4)c3)cn3nccc23)cn1 [Example 104, (S)-1-(3-methoxyazetidin-1-yl)-3-(4-(4-(1-(pentan-3-yl)-1H-pyrazol-4-yl)pyrazolo[1,5-a]pyrazin-6-yl)-1H-pyrazol-1-yl)propan-2-ol] | 10 to 100 nM | – | 1 to 10 µM | 10 to 100 nM | 1000 to 10000 nM |
| CCC(CC)n1cc(-c2nc(-c3cnn(CC(O)CO)c3)cn3nccc23)cn1 (stereo not shown) [Example 58, 3-(4-(4-(1-(pentan-3-yl)-1H-pyrazol-4-yl)pyrazolo[1,5-a]pyrazin-6-yl)-1H-pyrazol-1-yl)propane-1,2-diol] | 10 to 100 nM | – | 1 to 10 µM | 10 to 100 nM | 100 to 1000 nM |
| CCC(CC)n1cc(-c2nc(-c3cnn(C4CN(P(=O)(N(C)C)N(C)C)C4)c3)cn3nccc23)cn1 [Example 41, Bis-N,N-dimethyl-P-(3-(4-(4-(1-(pentan-3-yl)-1H-pyrazol-4-yl)pyrazolo[1,5-a]pyrazin-6-yl)-1H-pyrazol-1-yl)azetidin-1-yl)phosphonic amide] | 10 to 100 nM | 100 to 1000 nM | 1 to 10 µM | 10 to 100 nM | – |
| CCC(CC)n1cc(-c2nc(-c3cnn(C[C@@H](C)O)c3)cn3nccc23)cn1 [Example 109, (R)-1-(4-(4-(1-(pentan-3-yl)-1H-pyrazol-4-yl)pyrazolo[1,5-a]pyrazin-6-yl)-1H-pyrazol-1-yl)propan-2-ol] | 100 to 1000 nM | 1000 to 10000 nM | 1 to 10 µM | 1000 to 10000 nM | – |
| CCC(CC)n1cc(-c2nc(-c3cnn(C[C@@H]4CCC(=O)N4)c3)cn3nccc23)cn1 [Example 17, (S)-5-((4-(4-(1-(pentan-3-yl)-1H-pyrazol-4-yl)pyrazolo[1,5-a]pyrazin-6-yl)-1H-pyrazol-1-yl)methyl)pyrrolidin-2-one] | 10 to 100 nM | 100 to 1000 nM | 1 to 10 µM | 10 to 100 nM | – |
| CCC(CC)n1cc(-c2nc(-c3cnn(C[C@@H](O)CNC)c3)cn3nccc23)cn1 [Example 102, (S)-1-(methylamino)-3-(4-(4-(1-(pentan-3-yl)-1H-pyrazol-4-yl)pyrazolo[1,5-a]pyrazin-6-yl)-1H-pyrazol-1-yl)propan-2-ol] | 100 to 1000 nM | – | 1 to 10 µM | 10 to 100 nM | 1000 to 10000 nM |
| CCC(CCO)n1cc(-c2nc(-c3cnn(C)c3)cn3nccc23)cn1 (stereo not shown) [Example 47, 3-(4-(6-(1-methyl-1H-pyrazol-4-yl)pyrazolo[1,5-a]pyrazin-4-yl)-1H-pyrazol-1-yl)pentan-1-ol] | 1000 to 10000 nM | 1000 to 10000 nM | 1 to 10 µM | 1000 to 10000 nM | – |
| CCC(CC)n1cc(-c2nc(-c3cnn([C@H]4CC[C@@H](O)CC4)c3)cn3nccc23)cn1 [Example 121, cis-4-(4-(4-(1-(pentan-3-yl)-1H-pyrazol-4-yl)pyrazolo[1,5-a]pyrazin-6-yl)-1H-pyrazol-1-yl)cyclohexanol] | 10 to 100 nM | 100 to 1000 nM | – | 10 to 100 nM | – |
| CCC(CC)n1cc(-c2nc(-c3cnn([C@H]4CC[C@H](O)CC4)c3)cn3nccc23)cn1 [Example 118, trans-4-(4-(4-(1-(pentan-3-yl)-1H-pyrazol-4-yl)pyrazolo[1,5-a]pyrazin-6-yl)-1H-pyrazol-1-yl)cyclohexanol] | 10 to 100 nM | 10 to 100 nM | – | < 10 nM | – |
| CCC[C@H](C)n1cc(-c2nc(-c3cnn(C[C@H](O)CO)c3)cn3nccc23)cn1 [Example 86, (S)-3-(4-(4-(1-((S)-pentan-2-yl)-1H-pyrazol-4-yl)pyrazolo[1,5-a]pyrazin-6-yl)-1H-pyrazol-1-yl)propane-1,2-diol] | – | – | 1 to 10 µM | 10 to 100 nM | 100 to 1000 nM |

More lines, now with the values ahead:

| IC50 (Human Tyk2 kinase domain) | IC50 (JAK1) | IC50 (JAK3) | IC50 (JAK2) | IC50 (JAK1; [1]) | SMILES |
| --- | --- | --- | --- | --- | --- |
| 10 to 100 nM | – | 1 to 10 µM | 10 to 100 nM | 100 to 1000 nM | CC[C@@H](C1CCC1)n1cc(-c2nc(-c3cnn(C[C@@H](O)CO)c3)cn3nccc23)cn1 (single isomer, unassigned) [Example 197] |
| 100 to 1000 nM | 100 to 1000 nM | 1 to 10 µM | 10 to 100 nM | – | CCC(CC)n1cc(-c2nc(-c3cnn(CCNC4CC(CO)C4)c3)cn3nccc23)cn1 (stereo not shown) [Example 145, (3-((2-(4-(4-(1-(pentan-3-yl)-1H-pyrazol-4-yl)pyrazolo[1,5-a]pyrazin-6-yl)-1H-pyrazol-1-yl)ethyl)amino)cyclobutyl)methanol] |
| 10 to 100 nM | – | 1 to 10 µM | 10 to 100 nM | 10 to 100 nM | CCC(CC)n1cc(-c2nc(-c3cnn(CC4(CO)CC4)c3)cn3nccc23)cn1 [Example 192, (1-((4-(4-(1-(pentan-3-yl)-1H-pyrazol-4-yl)pyrazolo[1,5-a]pyrazin-6-yl)-1H-pyrazol-1-yl)methyl)cyclopropyl)methanol] |
| 10 to 100 nM | 100 to 1000 nM | 1 to 10 µM | 10 to 100 nM | – | CCC(CC)n1cc(-c2nc(-c3cnn([C@H]4C[C@H](CO)C4)c3)cn3nccc23)cn1 [Example 165, (trans-3-(4-(4-(1-(pentan-3-yl)-1H-pyrazol-4-yl)pyrazolo[1,5-a]pyrazin-6-yl)-1H-pyrazol-1-yl)cyclobutyl)methanol] |
| 100 to 1000 nM | – | – | 100 to 1000 nM | – | CCC(CC(F)(F)F)n1cc(-c2nc(-c3cnn(C[C@@H](O)CO)c3)cn3nccc23)cn1 (single isomer, unassigned) [Example 210] |
| 10 to 100 nM | – | – | 10 to 100 nM | – | CC[C@H](CC(F)(F)F)n1cc(-c2nc(-c3cnn(C[C@@H](O)CO)c3)cn3nccc23)cn1 (single isomer, unassigned) [Example 209] |
| – | 100 to 1000 nM | 1 to 10 µM | 10 to 100 nM | – | CCC(CC)n1cc(-c2nc(-c3cnn(C4CN(C(=O)C5(O)CC5)C4)c3)cn3nccc23)cn1 [Example 177, (1-hydroxycyclopropyl)(3-(4-(4-(1-(pentan-3-yl)-1H-pyrazol-4-yl)pyrazolo[1,5-a]pyrazin-6-yl)-1H-pyrazol-1-yl)azetidin-1-yl)methanone] |
| – | 100 to 1000 nM | 1 to 10 µM | 100 to 1000 nM | – | CCC(CC)n1cc(-c2nc(-c3cnn(C4CN(C(=O)C(C)(C)O)C4)c3)cn3nccc23)cn1 [Example 176, 2-hydroxy-2-methyl-1-(3-(4-(4-(1-(pentan-3-yl)-1H-pyrazol-4-yl)pyrazolo[1,5-a]pyrazin-6-yl)-1H-pyrazol-1-yl)azetidin-1-yl)propan-1-one] |
| < 10 nM | 100 to 1000 nM | – | 10 to 100 nM | – | CCC(CC)n1cc(-c2nc(-c3cnn([C@H]4C[C@@](C)(O)C4)c3)cn3nccc23)cn1 [Example 162, (1s,3s)-1-methyl-3-(4-(4-(1-(pentan-3-yl)-1H-pyrazol-4-yl)pyrazolo[1,5-a]pyrazin-6-yl)-1H-pyrazol-1-yl)cyclobutanol] |
